Results reported in patent US20250313572A1, “MACROCYCLIC MCL-1 INHIBITORS AND METHODS OF USE” (AbbVie Inc., priority 2017, published 2025).
Where two headings read alike, the source gives them in different places.

Key:
[1] = target: GST-MCL-1 (Homo sapiens, UniProt Q07820); assay: TR-FRET MCL-1 binding assay (competition with probe F-Bak)
Method in brief: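 Test compounds, 11 three-fold dilutions from 25 μM final, incubated 2 hours at room temperature with GST-MCL-1, F-Bak probe and Tb-anti-GST antibody. TR-FRET read at 340/35 nm excitation with 520/525 and 495/510 nm emission. Run without human serum and with 10% HS.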

[2] = tested on: NCI-H929 human multiple myeloma tumor cell line; assay: NCI-H929 cell viability assay (CellTiter-Glo, 24 hours); type: cell-based; conditions: Homo sapiens, NCI-H929, 24 h, read-out: H929 Viability IC50 (μM, 10% FBS), 10% FBS, 24 hours of compound treatment
[3] = tested on: AMO-1 human multiple myeloma tumor cell line; assay: AMO-1 cell viability assay (CellTiter-Glo, 24 hours); type: cell-based; conditions: Homo sapiens, AMO1, 24 h, read-out: AMO-1 Viability IC50 (μM, 10% FBS), 10% FBS, 24 hours of compound treatment
[4] = MCL-1 Binding Ki (nM, 10% HS), in the presence of 10% HS (human serum)
[5] = without HS, read-out: MCL-1 Binding Ki

GST-MCL-1, sequence (Q07820 whole entry): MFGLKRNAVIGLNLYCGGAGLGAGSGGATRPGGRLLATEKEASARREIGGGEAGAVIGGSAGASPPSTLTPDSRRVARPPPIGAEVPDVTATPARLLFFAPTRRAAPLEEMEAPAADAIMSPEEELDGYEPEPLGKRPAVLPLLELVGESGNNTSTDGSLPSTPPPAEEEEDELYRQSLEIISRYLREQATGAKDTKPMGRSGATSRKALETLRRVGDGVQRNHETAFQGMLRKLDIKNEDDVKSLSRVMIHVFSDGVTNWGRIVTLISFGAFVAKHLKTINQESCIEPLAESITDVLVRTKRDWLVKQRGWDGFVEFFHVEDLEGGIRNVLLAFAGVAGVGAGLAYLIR

Row | Structure (SMILES) | Ki [1, 4] | Ki [1, 5] | IC50 [2] | IC50 [3]
1 | Cc1c(Cl)c2c(Cl)c(C)c1-c1c(-c3ccc(F)cc3)sc3ncnc(c13)O[C@@H](C(=O)O)Cc1cc(ccc1OCc1ccnc(C3(COCCOC[C@H]4COCCO4)CCCCC3)n1)OC[C@@H](CN1CCN(C)CC1)O2 [Example 102, (7R,16R)-19,23-dichloro-10-[(2-{1-[(2-{[(2R)-1,4-dioxan-2-yl]methoxy}ethoxy)methyl]cyclohexyl}pyrimidin-4-yl)methoxy]-1-(4-fluorophenyl)-20,22-dimethyl-16-[(4-methylpiperazin-1-yl)methyl]-7,8,15,16-tetrahydro-18,21-etheno-13,9-(metheno)-6,14,17-trioxa-2-thia-3,5-diazacyclononadeca[1,2,3-cd]indene-7-carboxylic Acid] | 3.27 nM | 0.229 nM | 835 pM | 290 pM
2 | Cc1c(Cl)c2c(Cl)c(C)c1-c1c(-c3ccc(F)cc3)sc3ncnc(c13)O[C@@H](C(=O)O)Cc1cc(ccc1OCc1ccnc(N3CCO[C@H](COCCOCC4COCCO4)C3)n1)OC[C@@H](CN1CCN(C)CC1)O2 (stereo partly drawn) [Example 103, (7R,16R)-19,23-dichloro-10-({2-[(2S)-2-({2-[(1,4-dioxan-2-yl)methoxy]ethoxy}methyl)morpholin-4-yl]pyrimidin-4-yl}methoxy)-1-(4-fluorophenyl)-20,22-dimethyl-16-[(4-methylpiperazin-1-yl)methyl]-7,8,15,16-tetrahydro-18,21-etheno-13,9-(metheno)-6,14,17-trioxa-2-thia-3,5-diazacyclononadeca[1,2,3-cd]indene-7-carboxylic Acid] | 0.172 nM | 0.033 nM | 578 pM | 281 pM
3 | COCCOCCOCCOc1cccc(-c2nccc(COc3ccc4cc3C[C@H](C(=O)O)Oc3ncnc5sc(-c6ccc(F)cc6)c(c35)-c3c(C)c(Cl)c(c(Cl)c3C)O[C@H](CN3CCN(C)CC3)CO4)n2)c1 [Example 104, (7R,16R)-19,23-dichloro-1-(4-fluorophenyl)-10-{[2-(3-{2-[2-(2-methoxyethoxy)ethoxy]ethoxy}phenyl)pyrimidin-4-yl]methoxy}-20,22-dimethyl-16-[(4-methylpiperazin-1-yl)methyl]-7,8,15,16-tetrahydro-18,21-etheno-13,9-(metheno)-6,14,17-trioxa-2-thia-3,5-diazacyclononadeca[1,2,3-cd]indene-7-carboxylic Acid] | 0.089 nM | 0.009 nM | 55.7 pM | 48.8 pM
4 | Cc1c(Cl)c2c(Cl)c(C)c1-c1c(-c3ccc(F)cc3)sc3ncnc(c13)O[C@@H](C(=O)O)Cc1cc(ccc1OCc1ccnc(-c3ccc(OCC4COCCOCCOCCOCCO4)cc3)n1)OC[C@@H](CN1CCN(C)CC1)O2 (stereo partly drawn) [Example 107, (7R,16R)-19,23-dichloro-1-(4-fluorophenyl)-20,22-dimethyl-16-[(4-methylpiperazin-1-yl)methyl]-10-[(2-{4-[(1,4,7,10,13-pentaoxacyclopentadecan-2-yl)methoxy]phenyl}pyrimidin-4-yl)methoxy]-7,8,15,16-tetrahydro-18,21-etheno-13,9-(metheno)-6,14,17-trioxa-2-thia-3,5-diazacyclononadeca[1,2,3-cd]indene-7-carboxylic Acid] | 0.412 nM | 0.026 nM | 552 pM | 1470 pM
5 | COCCOCCN(CCOCCOC)c1nccc(COc2ccc3cc2C[C@H](C(=O)O)Oc2ncnc4sc(-c5ccc(F)cc5)c(c24)-c2c(C)c(Cl)c(c(Cl)c2C)O[C@H](CN2CCN(C)CC2)CO3)n1 [Example 108, (7R,16R)-10-[(2-{bis[2-(2-methoxyethoxy)ethyl]amino}pyrimidin-4-yl)methoxy]-19,23-dichloro-1-(4-fluorophenyl)-20,22-dimethyl-16-[(4-methylpiperazin-1-yl)methyl]-7,8,15,16-tetrahydro-18,21-etheno-13,9-(metheno)-6,14,17-trioxa-2-thia-3,5-diazacyclononadeca[1,2,3-cd]indene-7-carboxylic Acid] | 6.62 nM | 1.08 nM | 4170 pM | 3430 pM
6 | COCCOCCOCCOCCN(CCOCCOCCOCCOC)c1nccc(COc2ccc3cc2C[C@H](C(=O)O)Oc2ncnc4sc(-c5ccc(F)cc5)c(c24)-c2c(C)c(Cl)c(c(Cl)c2C)O[C@H](CN2CCN(C)CC2)CO3)n1 [Example 109, (7R,16R)-10-({2-[bis(2,5,8,11-tetraoxatridecan-13-yl)amino]pyrimidin-4-yl}methoxy)-19,23-dichloro-1-(4-fluorophenyl)-20,22-dimethyl-16-[(4-methylpiperazin-1-yl)methyl]-7,8,15,16-tetrahydro-18,21-etheno-13,9-(metheno)-6,14,17-trioxa-2-thia-3,5-diazacyclononadeca[1,2,3-cd]indene-7-carboxylic Acid] | 2.43 nM | 0.104 nM | 12800 pM | 16600 pM
7 | COCC(COC)Oc1ccc(-c2nccc(COc3ccc4cc3C[C@H](C(=O)O)Oc3ncnc5sc(-c6ccc(F)cc6)c(c35)-c3c(C)c(Cl)c(c(Cl)c3C)O[C@H](CN3CCN(C)CC3)CO4)n2)cc1 [Example 110, (7R,16R)-19,23-dichloro-10-[(2-{4-[(1,3-dimethoxypropan-2-yl)oxy]phenyl}pyrimidin-4-yl)methoxy]-1-(4-fluorophenyl)-20,22-dimethyl-16-[(4-methylpiperazin-1-yl)methyl]-7,8,15,16-tetrahydro-18,21-etheno-9,13-(metheno)-6,14,17-trioxa-2-thia-3,5-diazacyclononadeca[1,2,3-cd]indene-7-carboxylic Acid] | 49.9 nM | 9.63 nM | 1030 pM | 306 pM
8 | COCCOCCOCCOCCOCCOC[C@]1(F)CC[C@@H](c2nccc(COc3ccc4cc3C[C@H](C(=O)O)Oc3ncnc5sc(-c6ccc(F)cc6)c(c35)-c3c(C)c(Cl)c(c(Cl)c3C)O[C@H](CN3CCN(C)CC3)CO4)n2)CC1 [Example 113, (7R,16R)-19,23-dichloro-10-({2-[(1s,4s)-4-fluoro-4-(2,5,8,11,14,17-hexaoxaoctadecan-1-yl)cyclohexyl]pyrimidin-4-yl}methoxy)-1-(4-fluorophenyl)-20,22-dimethyl-16-[(4-methylpiperazin-1-yl)methyl]-7,8,15,16-tetrahydro-18,21-etheno-13,9-(metheno)-6,14,17-trioxa-2-thia-3,5-diazacyclononadeca[1,2,3-cd]indene-7-carboxylic Acid] | 0.065 nM | 0.016 nM | 640 pM | 280 pM
9 | Cc1c(Cl)c2c(Cl)c(C)c1-c1c(-c3ccc(F)cc3)sc3ncnc(c13)O[C@@H](C(=O)O)Cc1cc(ccc1OCc1ccnc(N3CCOCCOCCOCCOCC3)n1)OC[C@@H](CN1CCN(C)CC1)O2 [Example 115, (7R,16R)-19,23-dichloro-1-(4-fluorophenyl)-20,22-dimethyl-16-[(4-methylpiperazin-1-yl)methyl]-10-{[2-(1,4,7,10-tetraoxa-13-azacyclopentadecan-13-yl)pyrimidin-4-yl]methoxy}-7,8,15,16-tetrahydro-18,21-etheno-13,9-(metheno)-6,14,17-trioxa-2-thia-3,5-diazacyclononadeca[1,2,3-cd]indene-7-carboxylic Acid] | 0.862 nM | 0.093 nM | 1130 pM | 593 pM
10 | Cc1c(Cl)c2c(Cl)c(C)c1-c1c(-c3ccc(F)cc3)sc3ncnc(c13)O[C@@H](C(=O)O)Cc1cc(ccc1OCc1ccnc(N3CCOCCOCCOCCOCCOCC3)n1)OC[C@@H](CN1CCN(C)CC1)O2 [Example 116, (7R,16R)-19,23-dichloro-1-(4-fluorophenyl)-20,22-dimethyl-16-[(4-methylpiperazin-1-yl)methyl]-10-{[2-(1,4,7,10,13-pentaoxa-16-azacyclooctadecan-16-yl)pyrimidin-4-yl]methoxy}-7,8,15,16-tetrahydro-18,21-etheno-13,9-(metheno)-6,14,17-trioxa-2-thia-3,5-diazacyclononadeca[1,2,3-cd]indene-7-carboxylic Acid] | 2.94 nM | 0.332 nM | 7980 pM | 2970 pM
11 | Cc1c(Cl)c2c(Cl)c(C)c1-c1c(-c3ccc(F)cc3)sc3ncnc(c13)O[C@@H](C(=O)O)Cc1cc(ccc1OCc1ccnc(-c3cccc(CN4CCS(=O)(=O)CC4)c3)n1)OC[C@@H](CN1CCN(C)CC1)O2 [Example 117, (7R,16R)-19,23-dichloro-10-[(2-{3-[(1,1-dioxo-1λ^6-thiomorpholin-4-yl)methyl]phenyl}pyrimidin-4-yl)methoxy]-1-(4-fluorophenyl)-20,22-dimethyl-16-[(4-methylpiperazin-1-yl)methyl]-7,8,15,16-tetrahydro-18,21-etheno-13,9-(metheno)-6,14,17-trioxa-2-thia-3,5-diazacyclononadeca[1,2,3-cd]indene-7-carboxylic Acid] | 0.219 nM | 0.025 nM | 364 pM | 205 pM
12 | COCCOCCOCCOC[C@]1(F)CC[C@@H](c2nccc(COc3ccc4cc3C[C@H](C(=O)O)Oc3ncnc5sc(-c6ccc(F)cc6)c(c35)-c3c(C)c(Cl)c(c(Cl)c3C)O[C@H](CN3CCN(C)CC3)CO4)n2)CC1 [Example 118, (7R,16R)-19,23-dichloro-1-(4-fluorophenyl)-10-({2-[(1s,4s)-4-fluoro-4-(2,5,8,11-tetraoxadodecan-1-yl)cyclohexyl]pyrimidin-4-yl}methoxy)-20,22-dimethyl-16-[(4-methylpiperazin-1-yl)methyl]-7,8,15,16-tetrahydro-18,21-etheno-13,9-(metheno)-6,14,17-trioxa-2-thia-3,5-diazacyclononadeca[1,2,3-cd]indene-7-carboxylic Acid] | 27.3 nM | 1.99 nM | 396 pM | 247 pM
